Biological target: T1, human intracellular domain of KDR (VEGF Receptor-2) (Homo sapiens, UniProt P35968)
T1 construct: A fusion protein containing the intracellular domain (amino acids 793 to 1357) of the KDR and N-terminally tagged to GST; made in house; host or cells: Sf9 insect cells (baculovirus, pDEST20) for GST-KDR-cyt; E. coli BL21 (pGEX-4T-1) for GST-PLCγ
Assay: In vitro KDR kinase assay
Assay type: biochemical
Details: IC50 as molar concentration; GST-KDR-cyt, substrate phospholipase Cγ, ATP 100 μM, 30 min room temperature, time-resolved fluorometry
Experimental: The intracellular domain of the KDR receptor was used in the in vitro KDR assay. This domain contains the tyrosine kinase domain of KDR, and when expressed in Sf9 cells, this domain is constitutively active i.e. the kinase domain is phosphorylated on tyrosine residues.
The compounds to be tested were dissolved in DMSO at 10 mM, stored at −20° C. and protected from light. The maximum concentration of DMSO in the in vitro assay was 0.1%. Control samples received the same concentration of solvent as the samples treated with the test compounds.
For the kinase assays, black 96 wells MaxiSorp microtiter plates were coated by an overnight incubation with 100 μl/well of a 2.5 μg/ml solution of phospholipase Cγ in TBS buffer (40 mM Tris-HCl, pH 7.4, 20 mM Mg(C2H3O2)2, 0.02% NaN3) at 4° C. The plates were washed 3 times with TBS buffer containing 0.1% Tween-20, and the residual binding sites were masked by incubation with 1% BSA in TBS buffer containing 0.1% Tween-20 for 1 h. The plates were washed again and the test compounds were added at final concentrations up to 10 μM, together with ATP at the final concentration of 100 μM in 50 μl TBS buffer/well. Then, 50 μl of the human intracellular domain of KDR (VEGF Receptor-2) finally diluted 3000-3500 fold were added and were incubated for 30 min at room temperature. The plates were washed and 100 μl of the Europium labelled PY-20 anti-phosphotyrosine antibody (Wallac, FIN) were incubated in each well at the concentration of approximately 114 ng/ml for 2 h. Then, the plates were washed and 100 μl of enhancer solution (Wallac, FIN) were incubated in each well for 5 min in the dark. The plates were read in a Victor 1420 multilabel counter, using a Europium protocol for time-resolved fluorometry (Wallac, FIN): excitation 340 nm, emission 615 nm, sample pulse cycle 400 μs. Fluorescence was measured for 400 μs between flashes after a delay time of 400 μs. The background measured in the absence of enzyme was subtracted from all samples. The molar concentrations that inhibited 50% of the maximal enzymatic activity (IC50) were calculated from the dose-response curve, by fitting a straight line between the two concentrations immediately above and below the 50% inhibition point (i.e. by solving the equation y=a+bx).

T1 sequence (P35968 794-1356 limits assumed): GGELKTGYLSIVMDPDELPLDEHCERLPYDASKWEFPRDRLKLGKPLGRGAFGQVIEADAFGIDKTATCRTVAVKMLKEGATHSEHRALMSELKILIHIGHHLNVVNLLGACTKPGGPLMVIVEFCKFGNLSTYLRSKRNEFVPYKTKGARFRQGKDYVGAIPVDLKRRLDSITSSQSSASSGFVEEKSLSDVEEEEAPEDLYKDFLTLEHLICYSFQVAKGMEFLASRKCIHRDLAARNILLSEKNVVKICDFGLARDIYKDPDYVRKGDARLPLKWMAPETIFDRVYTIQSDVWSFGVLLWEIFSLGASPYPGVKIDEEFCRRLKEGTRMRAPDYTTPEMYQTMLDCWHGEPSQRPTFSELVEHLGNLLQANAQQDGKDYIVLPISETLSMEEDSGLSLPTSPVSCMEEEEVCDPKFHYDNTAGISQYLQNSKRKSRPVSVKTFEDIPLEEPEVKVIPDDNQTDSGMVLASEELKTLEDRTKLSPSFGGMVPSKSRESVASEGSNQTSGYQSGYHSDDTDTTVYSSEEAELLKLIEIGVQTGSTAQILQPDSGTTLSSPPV

SMILES | IC50
O=C(NOCc1ccccc1)c1ccccc1NCc1ccncc1 [Compound 1, N-Benzyloxy-2-[(pyridin-4-ylmethyl)-amino]-benzamide] | 79.4 nM
O=C(NOCc1ccc([N+](=O)[O-])cc1)c1ccccc1NCc1ccncc1 [Compound 2, N-(4-Nitro-benzyloxy)-2-[(pyridin-4-ylmethyl)-amino]-benzamide] | 126 nM
O=C(NOCc1ccccc1[N+](=O)[O-])c1ccccc1NCc1ccncc1 [Compound 3, N-(2-Nitro-benzyloxy)-2-[(pyridin-4-ylmethyl)-amino]-benzamide] | 100 nM
O=C(NOCc1cccc(C(F)(F)F)c1)c1ccccc1NCc1ccncc1 [Compound 4, 2-[(Pyridin-4-ylmethyl)-amino]-N-(3-trifluoromethyl-benzyloxy)-benzamide] | 200 nM
O=C(NOCc1ccc(C(F)(F)F)cc1)c1ccccc1NCc1ccncc1 [Compound 6, N2-[(Pyridin-4-ylmethyl)-amino]-N-(4-trifluoromethyl-benzyloxy)-benzamide] | 63.1 nM
COc1cc(CONC(=O)c2ccccc2NCc2ccncc2)cc(OC)c1OC [Compound 9, 2-[(pyridin-4-ylmethyl)-amino]-N-(3,4,5-trimethoxy-benzyloxy)-benzamide] | 100 nM
O=C(NOCc1cccc(Cl)c1)c1ccccc1NCc1ccncc1 [Compound 11, N-(3-Chloro-benzyloxy)-2-[(pyridin-4-ylmethyl)-amino]-benzamide] | 126 nM
O=C(NOCc1cc(Cl)cc(Cl)c1)c1ccccc1NCc1ccncc1 [Compound 17, N-(3,5-Dichloro-benzyloxy)-2-[(pyridin-4-ylmethyl)-amino]-benzamide] | 63.1 nM
O=C(NOCc1cc(Cl)ccc1Cl)c1ccccc1NCc1ccncc1 [Compound 19, N-(2,5-Dichloro-benzyloxy)-2-[(pyridin-4-ylmethyl)-amino]-benzamide] | 63.1 nM
O=C(NOCc1cccc(Cl)c1F)c1ccccc1NCc1ccncc1 [Compound 25, N-(3-Chloro-2-fluoro-benzyloxy)-2-[(pyridin-4-ylmethyl)-amino]-benzamide] | 50.1 nM
COC(=O)c1ccc(CONC(=O)c2ccccc2NCc2ccncc2)cc1 [Compound 26, 4-{2-[(pyridin-4-ylmethyl)-amino]-benzoylaminooxymethyl}-benzoic acid methyl ester] | 79.4 nM
O=C(NOCc1ccc2ccccc2n1)c1ccccc1NCc1ccncc1 [Compound 28, 2-[(Pyridin-4-ylmethyl)-amino]-N-(quinolin-2-ylmethoxy)-benzamide] | 100 nM
O=C(NOc1ccccc1)c1ccccc1NCc1ccncc1 [Compound 29, N-Phenoxy-2-[(pyridin-4-ylmethyl)-amino]-benzamide] | 126 nM
O=C(NOCCOc1ccccc1)c1ccccc1NCc1ccncc1 [Compound 30, N-(2-Phenoxy-ethoxy)-2-[(pyridin-4-ylmethyl)-amino]-benzamide] | 1000 nM
O=C(NOCCCc1ccccc1)c1ccccc1NCc1ccncc1 [Compound 31, N-(3-Phenyl-propoxy)-2-[(pyridin-4-ylmethyl)-amino]-benzamide] | 126 nM
O=C(NOCc1ccccc1)c1cccnc1NCc1ccncc1 [Compound 33, N-Benzyloxy-2-2-[(pyridin-4-ylmethyl)-amino]-nicotinamide] | 100 nM
COc1ccc(CONC(=O)c2cccnc2NCc2ccc(F)cc2)cc1 [Compound 34, 2-(4-Fluoro-benzylamino)-N-(4-methoxy-benzyloxy)-nicotinamide] | 794 nM
COc1ccc(CNc2ncccc2C(=O)NOCc2ccc(OC)cc2)cc1 [Compound 35, 2-(4-Methoxy-benzylamino)-N-(4-methoxy-benzyloxy)-nicotinamide] | 1000 nM

Second part, the compound after the results:

IC50 | SMILES
39.8 nM | CO[C@@H]1CCC[C@H](CONC(=O)c2ccccc2NCc2ccncc2)C1 (stereo in doubt) [Compound 131, N-(3-Methoxy-cyclohexylmethoxy)-2-[(pyridin-4-ylmethyl)-amino]-benzamide]
20 nM | O=C(NOCC1C[C@@H]2CC[C@H]1C2)c1ccccc1NCc1ccncc1 (stereo in doubt) [Compound 133, N-(Bicyclo[2.2.1]hept-2-ylmethoxy)-2-[(pyridin-4-ylmethyl)-amino]-benzamide]
31.6 nM | O=C(NOCc1ccccc1C(F)(F)F)c1ccccc1NCc1ccncc1 [Compound 5, 2-[(Pyridin-4-ylmethyl)-amino]-N-(2-trifluoromethyl-benzyloxy)-benzamide]
39.8 nM | COc1ccc(CONC(=O)c2ccccc2NCc2ccncc2)cc1 [Compound 7, N-(4-Methoxy-benzyloxy)-2-[(pyridin-4-ylmethyl)-amino]-benzamide]
31.6 nM | COc1cccc(CONC(=O)c2ccccc2NCc2ccncc2)c1 [Compound 8, N-(3-Methoxy-benzyloxy)-2-[(pyridin-4-ylmethyl)-amino]-benzamide]
50.1 nM | O=C(NOCc1ccc(Cl)cc1)c1ccccc1NCc1ccncc1 [Compound 10, N-(4-Chloro-benzyloxy)-2-[(pyridin-4-ylmethyl)-amino]-benzamide]
15.8 nM | O=C(NOCc1ccccc1Cl)c1ccccc1NCc1ccncc1 [Compound 12, N-(2-Chloro-benzyloxy)-2-[(pyridin-4-ylmethyl)-amino]-benzamide]
15.8 nM | O=C(NOCc1ccccc1Br)c1ccccc1NCc1ccncc1 [Compound 13, N-(2-Bromo-benzyloxy)-2-[(pyridin-4-ylmethyl)-amino]-benzamide]
6.31 nM | O=C(NOCc1ccc(Cl)cc1Cl)c1ccccc1NCc1ccncc1 [Compound 14, N-(2,4-Dichloro-benzyloxy)-2-[(pyridin-4-ylmethyl)-amino]-benzamide]
50.1 nM | O=C(NOCc1ccc(Cl)c(Cl)c1)c1ccccc1NCc1ccncc1 [Compound 15, N-(3,4-Dichloro-benzyloxy)-2-[(pyridine-4-ylmethyl)-amino]-benzamide]
25.1 nM | O=C(NOCc1c(Cl)cccc1Cl)c1ccccc1NCc1ccncc1 [Compound 16, N-(2,6-Dichloro-benzyloxy)-2-[(pyridin-4-ylmethyl)-amino]-benzamide]
20 nM | O=C(NOCc1cccc(Cl)c1Cl)c1ccccc1NCc1ccncc1 [Compound 18, N-(2,3-Dichloro-benzyloxy)-2-[(pyridin-4-ylmethyl)-amino]-benzamide]
31.6 nM | O=C(NOCc1ccccc1F)c1ccccc1NCc1ccncc1 [Compound 20, N-(2-Fluoro-benzyloxy)-2-[(pyridin-4-ylmethyl)-amino]-benzamide]
25.1 nM | O=C(NOCc1cccc(F)c1)c1ccccc1NCc1ccncc1 [Compound 21, N-(3-Fluoro-benzyloxy)-2-[(pyridin-4-ylmethyl)-amino]-benzamide]
25.1 nM | O=C(NOCc1ccc(F)cc1)c1ccccc1NCc1ccncc1 [Compound 22, N-(4-Fluoro-benzyloxy)-2-[(pyridin-4-ylmethyl)-amino]-benzamide]
25.1 nM | O=C(NOCc1c(F)cccc1Cl)c1ccccc1NCc1ccncc1 [Compound 23, N-(2-Chloro-6-fluoro-benzyloxy)-2-[(pyridin-4-ylmethyl)-amino]-benzamide]
20 nM | O=C(NOCc1ccc(F)cc1Cl)c1ccccc1NCc1ccncc1 [Compound 24, N-(2-Chloro-4-fluoro-benzyloxy)-2-[(pyridin-4-ylmethyl)-amino]-benzamide]
12.6 nM | N#Cc1ccc(CONC(=O)c2ccccc2NCc2ccncc2)cc1 [Compound 27, N-(4-cyano-benzyloxy)-2-[(pyridin-4-ylmethyl)-amino]-benzamide]
20 nM | Cc1nc(CONC(=O)c2ccccc2NCc2ccncc2)cs1 [Compound 32, N-(2-methyl-thiazol-4 ylmethoxy)-2-[(pyridin-4-ylmethyl)-amino]-benzamide]
10 nM | Cc1cc(F)cc(C)c1CONC(=O)c1ccccc1NCc1ccncc1 [Compound 38, N-(4-Fluoro-2,6-dimethyl-benzyloxy)-2-[(pyridin-4-ylmethyl)-amino]-benzamide]
6.31 nM | COc1cc(F)ccc1CONC(=O)c1ccccc1NCc1ccncc1 [Compound 39, N-(4-Fluoro-2-methoxy-benzyloxy)-2-[(pyridin-4-ylmethyl)-amino]-benzamide]
10 nM | Cc1ccc(CONC(=O)c2ccccc2NCc2ccncc2)c(F)c1F [Compound 40, N-(2,3-Difluoro-4-methyl-benzyloxy)-2-[(pyridin-4-ylmethyl)-amino]-benzamide]

From patent US8034811B2, “Hydroxamic acid esters and pharmaceutical use thereof” (Leo Pharma A/S, priority 2003, dated 2011)
